In one series the test system is rLUJV/ZsG. In words: microbe, parasite or virus in culture. It counts as cell-based, Lujo virus.
Another series in a line: in vitro. Particulars: human; for CC50: CC50 (50% cell cytotoxicity concentration).
[1] abbreviates: Mammarenavirus lujoense, Huh-7, 50 nM, read-out: Relative ZsG (%) Mean.
Where [2] appears, read: Mammarenavirus lujoense, Huh-7, 500 nM, read-out: Relative ZsG (%) Mean.
Setting [3] is: Mammarenavirus lujoense, Huh-7, 5000 nM, read-out: Relative ZsG (%) Mean.
Setting [4] is: Mammarenavirus lujoense, Huh-7, read-out: EC50 (concentration inhibiting ZsG expression by 50%).
The mark [5] stands for this setting: read-out: EC50 (concentration inhibiting ZsG expression by 50%).
Where [6] appears, read: Mammarenavirus lujoense, Huh-7, read-out: Relative ZsG (%) Mean.

Consider 18 molecules from paper PMC8310135 (Viruses, 2021).

The viability is a read-out of living cells in per cent, often relative to untreated cells. One may read the CC50 as the concentration at which the toxic effect on the cells reaches its halfway point. Higher therefore signals lower toxicity to the cells.

Where a name gives a salt, the structure may show the parent alone. Read-outs that look alike come from different tables or passages of the source.

Turning to `OC(CNCC(O)C1CCc2cc(F)ccc2O1)C1CCc2cc(F)ccc2O1` (centres unmarked) [Nebivolol], the activity at 0.05 µM in the series on rLUJV/ZsG (setting [1]) stood at 76%. In addition, the activity at 0.5 µM in the series on rLUJV/ZsG (setting [2]) turned out to be 58%. For the same molecule, in the series on rLUJV/ZsG (setting [3]), the activity at 5 µM was found to be 18%. In the series “in vitro”, the viability at 0.05 µM is 110%, the viability at 0.5 µM came out at 108% and the viability at 5 µM is 76%.

On to `CN1[C@@H]2CC[C@H]1C[C@@H](OC(c1ccccc1)c1ccccc1)C2` [Benztropine mesylate], for which the EC50 in the series on rLUJV/ZsG (setting [4]) came out at 5.14 ± 1.52 µM. In the series on rLUJV/ZsG (setting [1]), the activity at 0.05 µM was determined as 110%. Further, the activity at 0.5 µM in the series with rLUJV/ZsG (setting [2]) stood at 90%. The activity at 5 µM in the series with rLUJV/ZsG (setting [3]) was 36%. Besides, in the series with rLUJV/ZsG (setting [5]), the EC50 came out at 5.14 ± 1.52 µM. Also, in “in vitro”, the viability at 0.05 µM is 126%, the viability at 0.5 µM was determined as 130%, the viability at 5 µM was found to be 108% and the CC50 was above 25 µM.

As to `CO[C@@H]1[C@H](O)[C@@H](CO)O[C@H]1n1ccc(=O)[nH]c1=O` [2ʹ-O-methyluridine], the activity at 0.05 µM with rLUJV/ZsG (setting [1]) was 122%. For the same molecule, the activity at 0.5 µM in the series with rLUJV/ZsG (setting [2]) came to 130%. Also, the activity at 5 µM in the series with rLUJV/ZsG (setting [3]) worked out at 110%. Moreover, in the series “in vitro”, the viability at 0.05 µM amounted to 97%, the viability at 0.5 µM was determined as 100% and the viability at 5 µM came out at 96%.

With `[N-]=[N+]=Nc1cn([C@@H]2O[C@H](CO)[C@@H](O)[C@H]2O)c(=O)[nH]c1=O` [5-azidouridine], the activity at 0.05 µM in the series with rLUJV/ZsG (setting [1]) came to 121%. Also, the activity at 0.5 µM in the series on rLUJV/ZsG (setting [2]) came out at 119%. Besides, the activity at 5 µM in the series on rLUJV/ZsG (setting [3]) worked out at 113%. For the same molecule, in “in vitro”, the viability at 0.05 µM is 104%, the viability at 0.5 µM was found to be 100% and the viability at 5 µM was 104%.

Consider `COC(=O)C1=C(C)NC(C)=C(C(=O)OC2CCCN(Cc3ccccc3)C2)C1c1cccc([N+](=O)[O-])c1` (centres unmarked) [Benidipine], for which the activity at 0.05 µM in the series on rLUJV/ZsG (setting [1]) came out at 90%. For the same molecule, the activity at 0.5 µM in the series with rLUJV/ZsG (setting [2]) came out at 81%. Besides, in the series on rLUJV/ZsG (setting [3]), the activity at 5 µM worked out at 61%. In the series “in vitro”, the viability at 0.05 µM was found to be 126%, the viability at 0.5 µM came to 129% and the viability at 5 µM turned out to be 107%.

On to `CNCC[C@H](Oc1cccc2ccccc12)c1cccs1` [Duloxetine HCL], for which, in the series on rLUJV/ZsG (setting [6]), the activity at 0.05 µM came out at 103%, the activity at 0.5 µM was 74% and the activity at 5 µM was found to be 4%. In “in vitro”, the viability at 0.05 µM was 104%, the viability at 0.5 µM was found to be 109% and the viability at 5 µM was 76%.

As for `CC(C)OC(=O)[C@H](C)N[P@](=O)(OC[C@H]1O[C@@H](n2ccc(=O)[nH]c2=O)[C@](C)(F)[C@@H]1O)Oc1ccccc1` [PSI-7977], the activity at 0.05 µM in the series on rLUJV/ZsG (setting [1]) stood at 119%. Also, the activity at 0.5 µM in the series with rLUJV/ZsG (setting [2]) is 95%. For the same molecule, the activity at 5 µM with rLUJV/ZsG (setting [3]) stood at 118%. Besides, in “in vitro”, the viability at 0.05 µM was found to be 101%, the viability at 0.5 µM stood at 97% and the viability at 5 µM was found to be 104%.

On to `Nc1ncn([C@@H]2O[C@H](CO)[C@@H](O)[C@H]2O)c(=O)n1` [5-azacytidine], for which the activity at 0.05 µM with rLUJV/ZsG (setting [1]) amounted to 90%. In addition, the activity at 0.5 µM in the series on rLUJV/ZsG (setting [2]) came out at 112%. The activity at 5 µM in the series on rLUJV/ZsG (setting [3]) turned out to be 104%. Besides, in “in vitro”, the viability at 0.05 µM worked out at 96%, the viability at 0.5 µM is 102% and the viability at 5 µM was 102%.

On to `CCOC(=O)C1=C(C)NC(C)=C(C(=O)OCC)C1c1ccccc1/C=C/C(=O)OC(C)(C)C` [Lacidipine], for which the activity at 0.05 µM in the series with rLUJV/ZsG (setting [1]) amounted to 90%. Also, in the series with rLUJV/ZsG (setting [2]), the activity at 0.5 µM worked out at 90%. Also, the activity at 5 µM in the series with rLUJV/ZsG (setting [3]) is 47%. Also, in “in vitro”, the viability at 0.05 µM turned out to be 138%, the viability at 0.5 µM amounted to 129% and the viability at 5 µM amounted to 98%.

Consider `Nc1ncnc2c1nnn2[C@@H]1O[C@H](CO)[C@@H](O)[C@H]1O` [8-azaadenosine], for which, in the series with rLUJV/ZsG (setting [1]), the activity at 0.05 µM is 118%. Besides, the activity at 0.5 µM with rLUJV/ZsG (setting [2]) amounted to 121%. Also, the activity at 5 µM in the series with rLUJV/ZsG (setting [3]) amounted to 6%. In addition, in the series “in vitro”, the viability at 0.05 µM was determined as 98%, the viability at 0.5 µM came out at 103% and the viability at 5 µM worked out at 47%.

With `C#Cc1cccc(Nc2ncnc3cc(OCCOC)c(OCCOC)cc23)c1` [Erlotinib], in the series on rLUJV/ZsG (setting [1]), the activity at 0.05 µM stood at 82%. The activity at 0.5 µM with rLUJV/ZsG (setting [2]) worked out at 66%. Also, the activity at 5 µM with rLUJV/ZsG (setting [3]) stood at 65%. In “in vitro”, the viability at 0.05 µM came out at 127%, the viability at 0.5 µM stood at 126% and the viability at 5 µM stood at 110%.

For the molecule `CN(C)C(=O)C(CCN1CCC(O)(c2ccc(Cl)cc2)CC1)(c1ccccc1)c1ccccc1` [Loperamide HCL], the “SI (selectivity index, CC50 divided by EC50)” value in the series on rLUJV/ZsG is listed as 3.3. Besides, the EC50 in the series with rLUJV/ZsG (setting [4]) turned out to be 3.67 ± 0.99 µM. Moreover, in the series on rLUJV/ZsG (setting [1]), the activity at 0.05 µM was determined as 104%. In addition, the activity at 0.5 µM in the series on rLUJV/ZsG (setting [2]) is 81%. The activity at 5 µM in the series on rLUJV/ZsG (setting [3]) is 1%. Further, in the series with rLUJV/ZsG (setting [5]), the EC50 is 3.67 ± 0.986 µM. Besides, in the series “in vitro”, the viability at 0.05 µM amounted to 99%, the viability at 0.5 µM worked out at 104%, the viability at 5 µM was determined as 85% and the CC50 was 12.3 ± 3.57 µM.

On to `Cc1ccc(NC(=O)c2ccc(CN3CCN(C)CC3)cc2)cc1Nc1nccc(-c2cccnc2)n1` [Gleevec], for which the activity at 0.05 µM in the series with rLUJV/ZsG (setting [1]) was 95%. For the same molecule, the activity at 0.5 µM in the series with rLUJV/ZsG (setting [2]) stood at 113%. Besides, the activity at 5 µM with rLUJV/ZsG (setting [3]) turned out to be 56%. Besides, in “in vitro”, the viability at 0.05 µM was 101%, the viability at 0.5 µM is 96% and the viability at 5 µM is 96%.

On to `Nc1nc(Cl)nc2c1ncn2[C@@H]1O[C@H](CO)[C@@H](O)[C@H]1O` [2-chloroadenosine], for which, in the series on rLUJV/ZsG (setting [1]), the activity at 0.05 µM is 124%. Moreover, the activity at 0.5 µM in the series with rLUJV/ZsG (setting [2]) came to 133%. Further, in the series with rLUJV/ZsG (setting [3]), the activity at 5 µM amounted to 99%. In “in vitro”, the viability at 0.05 µM is 98%, the viability at 0.5 µM was found to be 105% and the viability at 5 µM amounted to 103%.

`O=C1C(O)=C([C@H]2CC[C@H](c3ccc(Cl)cc3)CC2)C(=O)c2ccccc21` [Atovaquone]: the activity at 0.05 µM with rLUJV/ZsG (setting [1]) turned out to be 108%. Further, in the series with rLUJV/ZsG (setting [2]), the activity at 0.5 µM came out at 90%. For the same molecule, in the series on rLUJV/ZsG (setting [3]), the activity at 5 µM is 74%. In addition, in the series “in vitro”, the viability at 0.05 µM is 129%, the viability at 0.5 µM was determined as 134% and the viability at 5 µM was 115%.

Consider `Cc1cn([C@H]2C[C@H](N=[N+]=[N-])[C@@H](CO)O2)c(=O)[nH]c1=O` [Zidovudine], for which, in the series with rLUJV/ZsG (setting [1]), the activity at 0.05 µM was 99%. Besides, the activity at 0.5 µM in the series with rLUJV/ZsG (setting [2]) is 88%. In addition, the activity at 5 µM with rLUJV/ZsG (setting [3]) worked out at 92%. In “in vitro”, the viability at 0.05 µM was found to be 97%, the viability at 0.5 µM amounted to 105% and the viability at 5 µM came out at 93%.

With `CN(C)CCOc1ccc(/C(=C(/CCCl)c2ccccc2)c2ccccc2)cc1` [Toremifene citrate], the “SI (selectivity index, CC50 divided by EC50)” value in the series on rLUJV/ZsG amounted to 2.6. Moreover, the EC50 in the series with rLUJV/ZsG (setting [4]) stood at 4.22 ± 0.78 µM. Moreover, the activity at 0.05 µM in the series with rLUJV/ZsG (setting [1]) turned out to be 86%. Further, the activity at 0.5 µM in the series on rLUJV/ZsG (setting [2]) is 88%. The activity at 5 µM in the series with rLUJV/ZsG (setting [3]) was 9%. Further, the EC50 in the series on rLUJV/ZsG (setting [5]) worked out at 4.22 ± 0.778 µM. Moreover, in the series “in vitro”, the viability at 0.05 µM was determined as 122%, the viability at 0.5 µM is 128%, the viability at 5 µM came to 93% and the 50% cytotoxic concentration (CC50) came to 10.9 ± 3.14 µM.

Turning to `Cc1cn([C@H]2C=C[C@@H](CO)O2)c(=O)[nH]c1=O` [Stavudine], the activity at 0.05 µM in the series on rLUJV/ZsG (setting [1]) was 125%. Also, the activity at 0.5 µM in the series with rLUJV/ZsG (setting [2]) stood at 104%. Moreover, the activity at 5 µM with rLUJV/ZsG (setting [3]) came out at 96%. For the same molecule, in “in vitro”, the viability at 0.05 µM worked out at 101%, the viability at 0.5 µM worked out at 98% and the viability at 5 µM came to 103%.
